Measurements reported in article PMC10175918 (Communications Biology, 2023).
Read-outs that look alike come from different tables or passages of the source.

Columns and labels:
Experiment in all cases: TGFα-shedding assay-based GPCR screening with chimeric Gα subunit proteins
Assay type in all cases: cell-based
348 GPCRs [1] = biological target: 348 GPCRs (Homo sapiens, UniProt P28221); details: 10µM, Favipiravir 100μM
348 GPCRs [2] = biological target: T1, 348 GPCRs (Homo sapiens, UniProt P29371); details: 10µM, Favipiravir 100μM
T1 construct: expressed in transfected cells; host or cells: HEK293A
T1 sequence (P29371 1-465): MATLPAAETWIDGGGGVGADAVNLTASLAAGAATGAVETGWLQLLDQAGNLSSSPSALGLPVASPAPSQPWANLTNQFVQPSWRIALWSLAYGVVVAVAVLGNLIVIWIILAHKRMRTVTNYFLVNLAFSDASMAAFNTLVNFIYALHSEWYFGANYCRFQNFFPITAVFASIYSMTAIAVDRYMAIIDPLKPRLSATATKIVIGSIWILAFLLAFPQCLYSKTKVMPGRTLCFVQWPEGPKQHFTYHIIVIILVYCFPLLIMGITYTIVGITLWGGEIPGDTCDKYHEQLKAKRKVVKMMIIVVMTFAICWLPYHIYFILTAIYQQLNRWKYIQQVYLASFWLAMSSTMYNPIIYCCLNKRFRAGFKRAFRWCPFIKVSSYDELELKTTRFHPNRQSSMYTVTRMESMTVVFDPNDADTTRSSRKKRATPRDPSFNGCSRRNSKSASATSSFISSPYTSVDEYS

348 GPCRs [3] = biological target: T2, 348 GPCRs (Homo sapiens, UniProt P32241)
T2 construct: expressed in transfected cells; host or cells: HEK293A
T2 sequence (P32241 31-457): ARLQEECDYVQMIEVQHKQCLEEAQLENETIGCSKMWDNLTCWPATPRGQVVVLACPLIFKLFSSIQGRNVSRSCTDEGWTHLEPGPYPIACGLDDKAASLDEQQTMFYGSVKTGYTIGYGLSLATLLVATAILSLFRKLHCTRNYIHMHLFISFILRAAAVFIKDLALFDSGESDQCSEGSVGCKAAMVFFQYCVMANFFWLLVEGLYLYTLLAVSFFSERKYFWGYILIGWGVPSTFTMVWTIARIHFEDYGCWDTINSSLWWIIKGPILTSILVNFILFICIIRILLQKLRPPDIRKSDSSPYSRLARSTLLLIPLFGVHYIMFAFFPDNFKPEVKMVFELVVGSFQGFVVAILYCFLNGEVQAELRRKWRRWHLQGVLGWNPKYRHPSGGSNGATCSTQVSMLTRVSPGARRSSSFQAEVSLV

348 GPCRs [4] = biological target: T3, 348 GPCRs (Homo sapiens, UniProt P32246); details: 10µM, Favipiravir 100μM
T3 construct: expressed in transfected cells; host or cells: HEK293A
T3 sequence (P32246 1-355): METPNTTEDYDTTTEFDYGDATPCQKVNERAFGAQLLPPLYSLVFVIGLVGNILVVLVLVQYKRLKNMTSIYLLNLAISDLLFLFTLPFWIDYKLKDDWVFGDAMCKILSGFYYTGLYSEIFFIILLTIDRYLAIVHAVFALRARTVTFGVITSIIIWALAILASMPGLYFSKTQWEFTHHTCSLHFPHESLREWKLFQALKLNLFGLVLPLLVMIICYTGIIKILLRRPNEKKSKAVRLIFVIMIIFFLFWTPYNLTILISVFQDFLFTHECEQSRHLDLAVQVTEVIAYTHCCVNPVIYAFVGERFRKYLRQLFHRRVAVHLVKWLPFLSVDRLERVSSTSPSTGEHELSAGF

348 GPCRs [5] = biological target: T4, 348 GPCRs (Homo sapiens, UniProt P32248); details: CCR7 (C-C motif chemokine receptor 7); 10µM, Favipiravir 100μM
T4 construct: expressed in transfected cells; host or cells: HEK293A
T4 sequence (P32248 25-378): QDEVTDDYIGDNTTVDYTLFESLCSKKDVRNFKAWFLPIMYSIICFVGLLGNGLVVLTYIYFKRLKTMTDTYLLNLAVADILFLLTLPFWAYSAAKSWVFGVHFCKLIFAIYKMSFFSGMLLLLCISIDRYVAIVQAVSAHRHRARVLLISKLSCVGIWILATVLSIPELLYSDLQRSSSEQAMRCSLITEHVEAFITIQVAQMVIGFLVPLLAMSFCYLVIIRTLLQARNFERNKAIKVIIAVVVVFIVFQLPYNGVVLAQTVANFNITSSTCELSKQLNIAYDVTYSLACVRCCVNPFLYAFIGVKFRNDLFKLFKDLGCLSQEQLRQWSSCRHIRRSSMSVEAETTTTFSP

348 GPCRs [6] = biological target: T5, 348 GPCRs (Homo sapiens, UniProt P49190); details: 10µM, Favipiravir 100μM
T5 construct: expressed in transfected cells; host or cells: HEK293A
T5 sequence (P49190 25-550): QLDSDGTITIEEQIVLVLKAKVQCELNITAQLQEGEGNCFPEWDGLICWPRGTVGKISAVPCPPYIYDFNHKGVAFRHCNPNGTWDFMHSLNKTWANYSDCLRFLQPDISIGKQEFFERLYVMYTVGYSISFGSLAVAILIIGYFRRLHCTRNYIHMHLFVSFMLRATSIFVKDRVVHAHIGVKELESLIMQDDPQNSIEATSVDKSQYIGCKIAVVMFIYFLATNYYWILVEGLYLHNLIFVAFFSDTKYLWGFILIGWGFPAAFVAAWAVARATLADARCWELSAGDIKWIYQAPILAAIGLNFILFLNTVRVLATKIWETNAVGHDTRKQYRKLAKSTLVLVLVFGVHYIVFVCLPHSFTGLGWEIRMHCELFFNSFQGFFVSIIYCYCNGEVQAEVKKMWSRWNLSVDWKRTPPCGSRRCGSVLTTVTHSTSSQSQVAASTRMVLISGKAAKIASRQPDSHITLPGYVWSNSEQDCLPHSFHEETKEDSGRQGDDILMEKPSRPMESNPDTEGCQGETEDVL

348 GPCRs [7] = biological target: T6, 348 GPCRs (Homo sapiens, UniProt Q96RI9); details: 10µM, Favipiravir 100μM
T6 construct: expressed in transfected cells; host or cells: HEK293A
T6 sequence (Q96RI9 1-348): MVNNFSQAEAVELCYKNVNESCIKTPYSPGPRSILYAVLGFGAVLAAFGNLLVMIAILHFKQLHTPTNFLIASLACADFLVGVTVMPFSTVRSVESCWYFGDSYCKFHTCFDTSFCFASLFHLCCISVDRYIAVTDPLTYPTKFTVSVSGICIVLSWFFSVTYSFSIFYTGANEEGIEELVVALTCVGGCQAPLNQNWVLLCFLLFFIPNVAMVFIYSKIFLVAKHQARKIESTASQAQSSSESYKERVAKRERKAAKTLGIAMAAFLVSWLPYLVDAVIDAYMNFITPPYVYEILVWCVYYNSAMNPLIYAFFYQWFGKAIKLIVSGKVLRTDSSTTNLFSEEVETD

348 GPCRs [8] = biological target: T7, 348 GPCRs (Homo sapiens, UniProt Q9NYW3); details: 10µM, Favipiravir 100μM
T7 construct: expressed in transfected cells; host or cells: HEK293A
T7 sequence (Q9NYW3 1-318): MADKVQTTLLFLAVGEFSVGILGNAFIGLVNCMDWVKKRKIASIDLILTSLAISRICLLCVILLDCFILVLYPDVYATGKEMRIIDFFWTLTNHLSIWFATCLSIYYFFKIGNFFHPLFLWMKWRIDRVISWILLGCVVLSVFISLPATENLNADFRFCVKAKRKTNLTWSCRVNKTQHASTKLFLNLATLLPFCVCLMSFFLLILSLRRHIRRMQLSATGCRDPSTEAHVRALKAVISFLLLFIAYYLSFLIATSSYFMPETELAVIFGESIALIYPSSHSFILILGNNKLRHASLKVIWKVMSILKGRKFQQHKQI

[9] = 5-HT1D (5-hydroxytryptamine receptor 1D), read-out: % GPCR activation compared to TPA
[10] = NK3 (tachykinin receptor 3), read-out: % GPCR activation compared to TPA
[11] = GPCR VIPR1 (vasoactive intestinal peptide receptor 1), read-out: % GPCR activation compared to TPA
[12] = CCR1 (chemokine (C-C motif) receptor 1), read-out: % GPCR activation compared to TPA
[13] = PTH2R (parathyroid hormone 2 receptor), read-out: % GPCR activation compared to TPA
[14] = TAAR9 (trace amine associated receptor 9), read-out: % GPCR activation compared to TPA
[15] = TAS2R7 (taste receptor, type 2, member 7), read-out: % GPCR activation compared to TPA
[16] = read-out: % GPCR activation compared to TPA, 5-HT1D (5-hydroxytryptamine receptor 1D)
[17] = read-out: % GPCR activation compared to TPA, NK3 (tachykinin receptor 3)
[18] = read-out: % GPCR activation compared to TPA, GPCR VIPR1 (vasoactive intestinal peptide receptor 1)
[19] = read-out: % GPCR activation compared to TPA, CCR1 (chemokine (C-C motif) receptor 1)
[20] = read-out: % GPCR activation compared to TPA, PTH2R (parathyroid hormone 2 receptor)
[21] = read-out: % GPCR activation compared to TPA, TAAR9 (trace amine associated receptor 9)
[22] = read-out: % GPCR activation compared to TPA, TAS2R7 (taste receptor, type 2, member 7)

348 GPCRs (Homo sapiens, UniProt P28221), sequence (P28221 whole entry): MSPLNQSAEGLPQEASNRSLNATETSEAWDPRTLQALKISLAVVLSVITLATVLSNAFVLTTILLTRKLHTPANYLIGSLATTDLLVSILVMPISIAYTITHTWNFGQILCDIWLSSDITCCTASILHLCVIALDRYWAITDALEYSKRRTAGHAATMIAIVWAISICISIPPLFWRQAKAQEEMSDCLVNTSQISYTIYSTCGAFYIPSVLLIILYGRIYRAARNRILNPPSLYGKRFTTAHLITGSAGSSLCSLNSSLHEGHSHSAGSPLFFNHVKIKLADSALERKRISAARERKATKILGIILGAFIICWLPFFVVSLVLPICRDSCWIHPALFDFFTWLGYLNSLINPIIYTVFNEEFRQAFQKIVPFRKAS

Row | Structure (SMILES) | activation at 100 µM (348 GPCRs [1]; [9]) [%] | activation at 10 µM (348 GPCRs [2]; [10]) [%] | activation at 10 µM (348 GPCRs [3]; [11]) [%] | activation at 100 µM (348 GPCRs [4]; [12]) [%] | % GPCR activation compared to TPA (348 GPCRs [5]) [%] | activation at 100 µM (348 GPCRs [6]; [13]) [%] | activation at 100 µM (348 GPCRs [7]; [14]) [%] | activation at 10 µM (348 GPCRs [8]; [15]) [%] | activation at 100 µM (348 GPCRs [3]; GPCR VIPR1 (vasoactive intestinal peptide receptor 1), 100μM, read-out: % GPCR activation compared to TPA) [%] | activation at 100 µM (348 GPCRs [1]; [16]) [%] | activation at 10 µM (348 GPCRs [2]; [17]) [%] | activation at 10 µM (348 GPCRs [3]; [18]) [%] | activation at 100 µM (348 GPCRs [4]; [19]) [%] | activation at 100 µM (348 GPCRs [6]; [20]) [%] | activation at 100 µM (348 GPCRs [7]; [21]) [%] | activation at 10 µM (348 GPCRs [8]; [22]) [%]
1 | N#C[C@@]1(c2ccc3c(N)ncnn23)O[C@H](CO)[C@@H](O)[C@H]1O [GS441524] | -9.87 | -0.811 | -2.1 | 4.02 | -0.998 | -1.76 | -2.32 | -0.22 | – | – | – | – | – | – | – | –
2 | CCC(CC)COC(=O)[C@H](C)N[P@](=O)(OC[C@H]1O[C@@](C#N)(c2ccc3c(N)ncnn23)[C@H](O)[C@@H]1O)Oc1ccccc1 [remdesivir] | – | – | – | – | – | – | – | – | – | -5.77 | -0.179 | -1.85 | 2.29 | 0.518 | 0.293 | 0.159
3 | CC(C)OC(=O)[C@H](C)N[P@](=O)(OC[C@H]1O[C@@H](n2ccc(=O)[nH]c2=O)[C@](C)(F)[C@@H]1O)Oc1ccccc1 [sofosbuvir] | – | – | – | – | -0.9167 | – | – | – | – | 0.836 | -1.94 | 0.0833 | -1.9 | -1.19 | -1.74 | 0.253

More lines, main results first:

Row | activation at 100 µM (348 GPCRs [1]; [9]) [%] | activation at 10 µM (348 GPCRs [2]; [10]) [%] | activation at 10 µM (348 GPCRs [3]; [11]) [%] | activation at 100 µM (348 GPCRs [4]; [12]) [%] | % GPCR activation compared to TPA (348 GPCRs [5]) [%] | activation at 100 µM (348 GPCRs [6]; [13]) [%] | activation at 100 µM (348 GPCRs [7]; [14]) [%] | activation at 10 µM (348 GPCRs [8]; [15]) [%] | activation at 100 µM (348 GPCRs [3]; GPCR VIPR1 (vasoactive intestinal peptide receptor 1), 100μM, read-out: % GPCR activation compared to TPA) [%] | Structure (SMILES) | activation at 100 µM (348 GPCRs [1]; [16]) [%] | activation at 10 µM (348 GPCRs [2]; [17]) [%] | activation at 10 µM (348 GPCRs [3]; [18]) [%] | activation at 100 µM (348 GPCRs [4]; [19]) [%] | activation at 100 µM (348 GPCRs [6]; [20]) [%] | activation at 100 µM (348 GPCRs [7]; [21]) [%] | activation at 10 µM (348 GPCRs [8]; [22]) [%]
4 | -9.38 | -0.777 | – | 5.15 | -0.3349 | 0.392 | -0.821 | -0.16 | -0.983 | NC(=O)c1nc(F)cnc1O [favipiravir, 6-fluoro-3-hydroxy-2-pyrazinecarboxamide] | – | – | – | – | – | – | –
5 | 0.705 | -1.59 | -0.522 | -1.8 | 0.5462 | -0.481 | -1.9 | -0.399 | – | CC(C)C(=O)OC[C@H]1O[C@@H](n2ccc(NO)nc2=O)[C@H](O)[C@@H]1O [molnupiravir] | – | – | – | – | – | – | –
